Where a SMILES comes first, the peptide text is derived from it. The star is where a group is joined. Cbz = O=C(OCc1ccccc1)*

The results in this text go back to patent publication US11215617B2, “Treatment of metastatic prostate cancer” (The Regents of the University of California, priority 2013, dated 2022).

One experiment has as its system LNCaP-s17 cells. The experiment can be described thus: Cell growth assay. Format: cell-based, human. Conditions: 10 μM AG490 with 20 μM enzalutamide, 48 h.
Another experiment concerns the target T1, AR-V7 (Homo sapiens, UniProt P10275).
T1 construct: CWR22rv1 cells, which express high endogenous AR-V7; endogenous in cells; host or cells: CWR22rv1
Description: AR-V7 protein degradation after cycloheximide block in CWR22rv1 cells. Format: cell-based. The settings on record: MG132 5 μM, cycloheximide 50 μg/mL, 2 μM niclosamide, 8 h. Here is the method:
At specified time points, cells were harvested, and the levels of AR-V7 protein were measured by Western blot using antibodies specific against AR-V7. […] The cell lysates were prepared at 8 h. AR-V7 protein levels were determined by Western blot analysis using antibodies specifically against AR-V7 and tubulin as a control.
At specified time points, cells were harvested, and the levels of AR-V7 protein were measured by Western blot using antibodies specific against AR-V7.

T1 sequence (P10275 1-644 isoform P10275-3): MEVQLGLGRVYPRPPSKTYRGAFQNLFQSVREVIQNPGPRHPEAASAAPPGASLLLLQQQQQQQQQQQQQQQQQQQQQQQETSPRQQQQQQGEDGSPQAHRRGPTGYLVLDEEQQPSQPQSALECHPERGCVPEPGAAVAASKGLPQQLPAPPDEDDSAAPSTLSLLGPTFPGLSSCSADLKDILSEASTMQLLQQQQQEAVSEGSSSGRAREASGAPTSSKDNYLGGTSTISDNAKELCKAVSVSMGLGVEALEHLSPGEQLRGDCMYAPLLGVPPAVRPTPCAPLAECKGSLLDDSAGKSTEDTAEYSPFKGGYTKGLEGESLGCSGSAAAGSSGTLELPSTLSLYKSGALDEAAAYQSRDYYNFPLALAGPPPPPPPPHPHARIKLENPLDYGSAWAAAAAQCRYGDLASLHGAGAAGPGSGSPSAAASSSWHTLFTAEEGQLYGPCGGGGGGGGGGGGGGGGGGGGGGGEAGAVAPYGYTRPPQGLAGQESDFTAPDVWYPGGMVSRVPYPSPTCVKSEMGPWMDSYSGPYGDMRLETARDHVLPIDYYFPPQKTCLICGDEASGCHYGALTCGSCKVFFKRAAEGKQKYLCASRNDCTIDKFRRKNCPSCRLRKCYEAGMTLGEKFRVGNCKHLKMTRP
Description for LNCaP-s17 cells: Total cell numbers were counted and the cell survival rate (%) was calculated. Cell survival rate (%)=(Treatment group cell number/Control group cell number)×100%. […] Total cell numbers were counted after 2, 4, and 7 days. […] The cells were treated as indicated and total cell numbers were counted.

Consider `N#C/C(=C/c1ccc(O)c(O)c1)C(=O)NCc1ccccc1` [AG490], for which the “reversal of enzalutamide resistance” value in the experiment on LNCaP-s17 cells was “reverse enzalutamide resistance”.

`CC(C)C[C@@H](C=O)NC(=O)[C@H](CC(C)C)NC(=O)[C@H](CC(C)C)NC(=O)OCc1ccccc1` [MG132] (Cbz-Leu-Leu-Leu-aldehyde): on AR-V7, the “niclosamide effect on AR-V7 protein levels in presence of MG132” value was “able to retard the niclosamide effect on AR-V7 protein levels”.
